Results taken from the kinase profiling compilation of Christmann-Franck et al. (2016).

How the values were obtained:
Assay in all cases: split-luciferase competition binding
AURKC (human) = AURKC (human) (UniProt Q9UQB9); conditions: compound 10.0 µM
PRKACA (mouse) = conditions: compound 10.0 µM; accession and sequence are those of the human protein
PRKCG (human) = PRKCG (human) (UniProt P05129); conditions: compound 10.0 µM
PRKACB (human) = PRKACB (human) (UniProt P22694); conditions: compound 10.0 µM
PRKX (human) = PRKX (human) (UniProt P51817); conditions: compound 10.0 µM
Chain of PRKX (human) (P51817 whole entry, looked up): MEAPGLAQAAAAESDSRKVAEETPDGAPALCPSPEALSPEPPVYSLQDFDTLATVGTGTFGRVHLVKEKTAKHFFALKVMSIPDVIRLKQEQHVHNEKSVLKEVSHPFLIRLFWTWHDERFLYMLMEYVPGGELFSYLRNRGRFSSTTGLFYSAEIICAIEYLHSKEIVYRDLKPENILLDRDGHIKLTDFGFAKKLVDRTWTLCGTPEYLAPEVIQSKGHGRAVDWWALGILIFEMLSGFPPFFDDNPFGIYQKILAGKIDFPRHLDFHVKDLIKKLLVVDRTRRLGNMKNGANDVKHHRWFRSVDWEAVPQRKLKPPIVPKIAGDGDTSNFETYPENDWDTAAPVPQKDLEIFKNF

PRKCH (human) = PRKCH (human) (UniProt P24723); conditions: compound 10.0 µM
Chain of PRKCH (human) (P24723 whole entry, looked up): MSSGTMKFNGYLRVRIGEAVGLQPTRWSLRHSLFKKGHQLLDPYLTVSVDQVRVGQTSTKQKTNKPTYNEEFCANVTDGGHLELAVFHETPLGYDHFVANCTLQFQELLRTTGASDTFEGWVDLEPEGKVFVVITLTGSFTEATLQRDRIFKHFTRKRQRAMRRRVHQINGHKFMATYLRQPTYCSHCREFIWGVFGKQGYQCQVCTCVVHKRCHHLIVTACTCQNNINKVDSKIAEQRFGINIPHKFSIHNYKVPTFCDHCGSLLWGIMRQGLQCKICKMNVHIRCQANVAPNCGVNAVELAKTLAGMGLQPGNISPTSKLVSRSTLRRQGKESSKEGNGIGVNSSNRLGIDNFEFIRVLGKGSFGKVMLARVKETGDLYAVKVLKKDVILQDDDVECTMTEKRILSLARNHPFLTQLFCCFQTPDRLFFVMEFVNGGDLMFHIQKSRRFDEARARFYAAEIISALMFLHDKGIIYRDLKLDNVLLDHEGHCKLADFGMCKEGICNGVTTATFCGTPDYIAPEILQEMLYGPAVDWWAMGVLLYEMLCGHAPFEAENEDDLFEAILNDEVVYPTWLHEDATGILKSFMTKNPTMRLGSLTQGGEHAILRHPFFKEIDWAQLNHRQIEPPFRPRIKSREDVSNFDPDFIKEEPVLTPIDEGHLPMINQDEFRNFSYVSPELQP

STK32B (human) = STK32B (human) (UniProt Q9NY57); conditions: compound 10.0 µM
AKT2 (human) = AKT2 (human) (UniProt P31751); conditions: compound 10.0 µM
AKT3 (human) = AKT3 (human) (UniProt Q9Y243); conditions: compound 10.0 µM
Chain of AKT3 (human) (Q9Y243 whole entry, looked up): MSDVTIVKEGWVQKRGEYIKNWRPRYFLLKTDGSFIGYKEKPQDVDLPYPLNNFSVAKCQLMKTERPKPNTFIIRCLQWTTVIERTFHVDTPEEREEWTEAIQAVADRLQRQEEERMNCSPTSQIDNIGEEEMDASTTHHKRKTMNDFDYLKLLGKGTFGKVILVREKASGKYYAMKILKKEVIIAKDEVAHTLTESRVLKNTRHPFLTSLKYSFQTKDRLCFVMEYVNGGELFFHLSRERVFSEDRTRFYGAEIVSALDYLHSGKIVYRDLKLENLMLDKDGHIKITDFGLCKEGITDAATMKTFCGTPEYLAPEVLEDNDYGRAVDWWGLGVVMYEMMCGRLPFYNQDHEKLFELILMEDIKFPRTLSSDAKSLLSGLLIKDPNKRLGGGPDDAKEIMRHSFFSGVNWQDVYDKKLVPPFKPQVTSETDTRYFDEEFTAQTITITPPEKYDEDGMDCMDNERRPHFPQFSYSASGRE

PRKCD (human) = PRKCD (human) (UniProt Q05655); conditions: compound 10.0 µM
RPS6KA1 KD1 (human) = RPS6KA1 KD1 (human) (UniProt Q15418); conditions: compound 10.0 µM
RPS6KA3 KD1 (human) = RPS6KA3 KD1 (human) (UniProt P51812); conditions: compound 10.0 µM
PDPK1 (human) = PDPK1 (human) (UniProt O15530); conditions: compound 10.0 µM
AKT1 (human) = AKT1 (human) (UniProt P31749); conditions: compound 10.0 µM
Chain of AKT1 (human) (P31749 whole entry, looked up): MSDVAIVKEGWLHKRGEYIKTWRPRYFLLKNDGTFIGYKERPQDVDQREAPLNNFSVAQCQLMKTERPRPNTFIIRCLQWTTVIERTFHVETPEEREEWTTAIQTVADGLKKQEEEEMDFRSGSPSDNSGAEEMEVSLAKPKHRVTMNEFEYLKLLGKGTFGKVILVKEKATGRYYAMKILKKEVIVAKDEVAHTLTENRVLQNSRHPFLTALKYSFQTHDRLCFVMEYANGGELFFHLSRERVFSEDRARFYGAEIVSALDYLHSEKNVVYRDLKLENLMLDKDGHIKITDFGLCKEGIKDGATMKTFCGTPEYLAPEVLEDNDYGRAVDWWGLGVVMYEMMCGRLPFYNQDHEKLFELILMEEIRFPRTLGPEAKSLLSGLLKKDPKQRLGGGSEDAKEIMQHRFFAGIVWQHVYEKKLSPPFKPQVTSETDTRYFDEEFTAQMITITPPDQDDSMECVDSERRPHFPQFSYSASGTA

RPS6KA4 KD1 (human) = RPS6KA4 KD1 (human) (UniProt O75676); conditions: compound 10.0 µM
AURKB (human) = AURKB (human) (UniProt Q96GD4); conditions: compound 10.0 µM
Chain of AURKB (human) (Q96GD4 whole entry, looked up): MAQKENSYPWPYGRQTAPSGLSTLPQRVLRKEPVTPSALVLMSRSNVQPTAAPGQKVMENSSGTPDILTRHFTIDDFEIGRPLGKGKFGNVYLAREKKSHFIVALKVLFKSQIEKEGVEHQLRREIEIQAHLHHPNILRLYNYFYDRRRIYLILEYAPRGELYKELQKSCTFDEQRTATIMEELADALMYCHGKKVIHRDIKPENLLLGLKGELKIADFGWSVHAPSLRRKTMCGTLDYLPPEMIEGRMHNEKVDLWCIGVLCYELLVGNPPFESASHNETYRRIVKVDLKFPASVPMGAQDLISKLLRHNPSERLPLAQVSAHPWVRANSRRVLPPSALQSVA

PRKCI (human) = PRKCI (human) (UniProt P41743); conditions: compound 10.0 µM
Chain of PRKCI (human) (P41743 whole entry, looked up): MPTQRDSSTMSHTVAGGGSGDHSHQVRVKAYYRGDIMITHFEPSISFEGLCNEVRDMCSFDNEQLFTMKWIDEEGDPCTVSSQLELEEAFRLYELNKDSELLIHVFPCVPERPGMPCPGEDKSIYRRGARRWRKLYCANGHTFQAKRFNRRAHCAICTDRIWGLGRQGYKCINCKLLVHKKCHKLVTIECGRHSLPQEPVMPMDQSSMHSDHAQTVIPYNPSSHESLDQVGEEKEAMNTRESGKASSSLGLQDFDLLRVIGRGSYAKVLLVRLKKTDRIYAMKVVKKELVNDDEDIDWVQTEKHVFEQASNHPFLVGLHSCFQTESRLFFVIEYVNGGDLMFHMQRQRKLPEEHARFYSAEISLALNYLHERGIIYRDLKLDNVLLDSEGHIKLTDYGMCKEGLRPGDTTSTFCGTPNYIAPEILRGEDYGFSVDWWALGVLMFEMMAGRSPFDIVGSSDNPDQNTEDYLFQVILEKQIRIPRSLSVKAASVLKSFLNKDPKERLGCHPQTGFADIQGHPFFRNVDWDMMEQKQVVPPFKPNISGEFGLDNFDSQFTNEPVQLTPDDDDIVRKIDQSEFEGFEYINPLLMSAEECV

PRKCQ (human) = PRKCQ (human) (UniProt Q04759); conditions: compound 10.0 µM
Chain of PRKCQ (human) (Q04759 whole entry, looked up): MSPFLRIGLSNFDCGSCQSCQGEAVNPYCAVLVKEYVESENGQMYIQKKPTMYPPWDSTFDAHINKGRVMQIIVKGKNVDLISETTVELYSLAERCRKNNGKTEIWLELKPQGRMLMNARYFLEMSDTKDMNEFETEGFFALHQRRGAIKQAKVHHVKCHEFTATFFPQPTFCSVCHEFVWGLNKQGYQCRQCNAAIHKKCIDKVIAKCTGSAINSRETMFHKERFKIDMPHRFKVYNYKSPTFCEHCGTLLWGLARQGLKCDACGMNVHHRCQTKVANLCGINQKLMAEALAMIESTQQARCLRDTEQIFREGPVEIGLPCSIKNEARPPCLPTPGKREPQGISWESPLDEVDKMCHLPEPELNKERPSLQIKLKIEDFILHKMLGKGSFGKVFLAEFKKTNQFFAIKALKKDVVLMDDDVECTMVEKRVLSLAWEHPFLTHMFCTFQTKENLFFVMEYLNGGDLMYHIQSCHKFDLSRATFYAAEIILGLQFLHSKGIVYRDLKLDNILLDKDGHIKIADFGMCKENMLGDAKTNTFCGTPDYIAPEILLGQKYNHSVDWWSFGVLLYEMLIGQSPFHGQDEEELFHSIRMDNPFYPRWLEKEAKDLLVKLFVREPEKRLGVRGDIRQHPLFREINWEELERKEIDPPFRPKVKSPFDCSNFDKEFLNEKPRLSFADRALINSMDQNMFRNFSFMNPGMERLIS

AURKA (human) = AURKA (human) (UniProt O14965); conditions: compound 10.0 µM
Chain of AURKA (human) (O14965 whole entry, looked up): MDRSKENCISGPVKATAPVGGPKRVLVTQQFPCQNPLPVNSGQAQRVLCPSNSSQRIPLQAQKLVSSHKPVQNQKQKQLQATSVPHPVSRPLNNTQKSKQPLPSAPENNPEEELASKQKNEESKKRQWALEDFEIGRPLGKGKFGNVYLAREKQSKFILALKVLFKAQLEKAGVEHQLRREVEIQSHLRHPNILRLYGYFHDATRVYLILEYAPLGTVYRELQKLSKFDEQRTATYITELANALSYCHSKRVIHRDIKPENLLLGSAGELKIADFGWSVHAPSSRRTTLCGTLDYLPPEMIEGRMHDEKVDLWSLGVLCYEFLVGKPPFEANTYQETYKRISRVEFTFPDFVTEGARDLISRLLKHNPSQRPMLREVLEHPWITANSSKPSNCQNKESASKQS

PRKCE (human) = PRKCE (human) (UniProt Q02156); conditions: compound 10.0 µM
RPS6KA5 KD1 (human) = RPS6KA5 KD1 (human) (UniProt O75582); conditions: compound 10.0 µM
DMPK (human) = DMPK (human) (UniProt Q09013); conditions: compound 10.0 µM
RPS6KA2 KD1 (human) = RPS6KA2 KD1 (human) (UniProt Q15349); conditions: compound 10.0 µM
SGK2 (human) = SGK2 (human) (UniProt Q9HBY8); conditions: compound 10.0 µM
PKN1 (human) = PKN1 (human) (UniProt Q16512); conditions: compound 10.0 µM
SGK3 (human) = SGK3 (human) (UniProt Q96BR1); conditions: compound 10.0 µM
Chain of SGK3 (human) (Q96BR1 whole entry, looked up): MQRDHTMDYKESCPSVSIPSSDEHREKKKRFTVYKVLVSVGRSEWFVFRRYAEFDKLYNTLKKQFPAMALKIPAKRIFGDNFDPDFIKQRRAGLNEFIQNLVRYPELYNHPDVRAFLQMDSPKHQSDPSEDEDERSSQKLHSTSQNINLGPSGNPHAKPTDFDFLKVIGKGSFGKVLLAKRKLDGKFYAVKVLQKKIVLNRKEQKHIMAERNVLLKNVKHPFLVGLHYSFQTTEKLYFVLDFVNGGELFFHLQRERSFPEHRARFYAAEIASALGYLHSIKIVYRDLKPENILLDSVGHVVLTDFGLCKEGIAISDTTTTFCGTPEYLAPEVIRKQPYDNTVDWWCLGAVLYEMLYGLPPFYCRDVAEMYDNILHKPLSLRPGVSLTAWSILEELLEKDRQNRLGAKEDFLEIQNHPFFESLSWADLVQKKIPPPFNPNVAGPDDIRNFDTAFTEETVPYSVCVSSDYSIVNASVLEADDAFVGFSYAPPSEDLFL

RPS6KA6 KD1 (human) = RPS6KA6 KD1 (human) (UniProt Q9UK32); conditions: compound 10.0 µM

Chain of AURKC (human) (Q9UQB9 whole entry, looked up): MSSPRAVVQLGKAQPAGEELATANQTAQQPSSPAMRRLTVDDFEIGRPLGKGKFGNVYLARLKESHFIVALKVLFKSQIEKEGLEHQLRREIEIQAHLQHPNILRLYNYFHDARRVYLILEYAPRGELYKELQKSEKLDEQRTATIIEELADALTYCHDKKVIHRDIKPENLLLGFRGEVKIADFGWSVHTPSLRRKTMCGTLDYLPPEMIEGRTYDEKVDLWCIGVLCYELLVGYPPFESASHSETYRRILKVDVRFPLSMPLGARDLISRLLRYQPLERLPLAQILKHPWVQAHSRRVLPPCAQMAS

Row | SMILES | inhibition (AURKC (human)) [%] | inhibition (PRKACA (mouse)) [%] | inhibition (PRKCG (human)) [%] | inhibition (PRKACB (human)) [%] | inhibition (PRKX (human)) [%] | inhibition (PRKCH (human)) [%] | inhibition (STK32B (human)) [%] | inhibition (AKT2 (human)) [%] | inhibition (AKT3 (human)) [%] | inhibition (PRKCD (human)) [%] | inhibition (RPS6KA1 KD1 (human)) [%] | inhibition (RPS6KA3 KD1 (human)) [%] | inhibition (PDPK1 (human)) [%] | inhibition (AKT1 (human)) [%] | inhibition (RPS6KA4 KD1 (human)) [%] | inhibition (AURKB (human)) [%] | inhibition (PRKCI (human)) [%] | inhibition (PRKCQ (human)) [%] | inhibition (AURKA (human)) [%] | inhibition (PRKCE (human)) [%] | other results
1 | CC(C)(C)n1nc(-c2cccc3ccccc23)c2c(N)ncnc21 | 17 | 32 | 5 | 21 | 9 | 8 | 66 | 0 | 0 | 0 | 24 | 30 | 0 | 18 | 0 | 12 | 0 | 31 | 0 | 14 | inhibition (RPS6KA5 KD1 (human)): 0%; inhibition (DMPK (human)): 27%; inhibition (RPS6KA2 KD1 (human)): 10%; inhibition (SGK2 (human)): 0%; inhibition (PKN1 (human)): 0%; inhibition (SGK3 (human)): 0%; inhibition (RPS6KA6 KD1 (human)): 4%
2 | CN1CCC(Nc2ncc3ncnc(Nc4ccc(F)c(Cl)c4)c3n2)CC1 | 10 | 6 | 0 | 0 | 6 | 0 | 0 | 0 | 0 | 0 | 0 | 0 | 0 | 0 | 0 | 8 | 0 | 0 | 0 | 0 | inhibition (RPS6KA5 KD1 (human)): 0%; inhibition (DMPK (human)): 3%; inhibition (RPS6KA2 KD1 (human)): 4%; inhibition (SGK2 (human)): 0%; inhibition (PKN1 (human)): 3%; inhibition (SGK3 (human)): 0%; inhibition (RPS6KA6 KD1 (human)): 0%
3 | Cn1cnc2c(NCc3ccccc3)nc(NCCO)nc21 | 0 | 5 | 0 | 0 | 7 | 0 | 0 | 0 | 0 | 3 | 0 | 0 | 0 | 5 | 0 | 4 | 0 | 0 | 0 | 0 | inhibition (RPS6KA5 KD1 (human)): 0%; inhibition (DMPK (human)): 0%; inhibition (RPS6KA2 KD1 (human)): 0%; inhibition (SGK2 (human)): 0%; inhibition (PKN1 (human)): 6%; inhibition (SGK3 (human)): 0%; inhibition (RPS6KA6 KD1 (human)): 0%
